From patent publication US11969431B2, “Formulations for treatment of post-traumatic stress disorder” (Glytech LLC, priority 2017, dated 2024) come the findings set out here.

In assay [1] the test system is Wistar-Kyoto (WKY) rats. In words: Cued fear conditioning / extinction training, freezing behavior in WKY rats. The assay is classed as in vivo, rat. The following applies: for Freezing behavior, direction of change vs. vehicle: WKY rats, across days 1 and 3. From the text: Inbred Wistar-Kyoto (WKY) rats have been used as models of several behavioral deficits, such as stress vulnerability and sleep disturbance.
Fear memories are crucial in psychiatric conditions such as PTSD. Pavlovian fear conditioning (FC) test is a widely-used behavioral assay in rodents for measurement of aversive learning and memory through learned associations between aversive stimulus (a mild electric shock) and a specific cue (e.g., a tone; cued conditioning) or a context in which electric shock had occurred (contextual conditioning). Once the association is established, the conditioned stimulus (CS, i.e. tone or context) can induce fear response in a similar manner to unconditioned stimulus (US, i.e. electric shock). However, if CS repeatedly presents without combination of US, extinction occurs in normal animals. Fear extinction is usually regarded as a new inhibitory learning after repeated or prolonged CS presentations without the US, which causes a gradual decrease in the magnitude and/or frequency of the conditioned response (i.e. freezing response in FC test). Deficits in such inhibitory learning can be regarded as a hallmark of clinical PTSD.
Young adult (about 7 weeks of age), male WKY and Wistar rats purchased from Charles River Laboratory were used in this study. Upon receipt, animals were group-housed (2 per cage) and acclimated for at least 7 days. All rats were examined, handled, and weighed prior to initiation of the study to assure adequate health and suitability. During the course of the study, 12/12 light/dark cycles were maintained. The room temperature was maintained between 20 and 23° C. with a relative humidity maintained around 50%. Rats were randomly assigned to each treatment group. All testing was conducted during the animals' light cycle.
When combined with DSC, the combinations were given in a cocktail 30 minute prior to extinction test • D-CPP-ene (5 mg/kg) was be dissolved in acidified saline and administered s.c 30 min prior to extinction test at a dose volume of 2 ml/kg • Lurasidone (Lur, 0.2 mg/kg was dissolved in saline and administered IP 30 min prior to test at a dose volume of 1 ml/kg • Quetiapine (QTP, 10 mg/kg) was dissolved in acidified saline and administered s.c 30 min prior to test at a dose volume of 1 ml/kg
The experiment was conducted in the fear conditioning system manufactured by Coulbourn Instruments (PA, USA). Animal's body movements are captured with a video system and the FreezeFrame software, and freezing is analyzed automatically by the FreezeView software (Coulbourn Instruments, PA, USA).
Fear Conditioning Training: Animals were exposed to 5 CS-US pairings of a 10 sec tone (70 dB conditioned stimulus/CS) co-terminating with a brief electric shock (0.5 mA for 1.0 sec unconditioned stimulus/US). The 5 CS-US pairings are separated by a 60 sec interval with the first CS at 120 s. The rats stage in boxes for one minute after the last shock before being moved out.
Extinction training: Extinction training was conducted twice at 24 and 72 hr post FC training. A cued FC extinction paradigm was applied. The extinction training was conducted in the “cylinder”, a changed context which is different from the boxes of FC training. The extinction training lasted 32-40 min, including 8-10 identical bins. Each bin includes a 2 min tone period followed by a 2 min no-tone period (inter-trial interval, ITI).
Percent freezing during bins 7-8 of extinction trainings (24 hr and 72 hr) was used to evaluate effectiveness of treatment. Data were analyzed by […] analyses of variance (ANOVA), with treatment/group and extinction stage (cues or bins) set as factors. Fisher LSD method was used in Post hoc comparisons if applicable.

Assay [2] concerns mice. In words: Marble burying test. The assay is classed as in vivo. The following applies: for Effects on marble burying relative to racemic mirtazapine: Example 4, FIG. 2.

For the compound `CN[C@H]1CC[C@@H](c2ccc(Cl)c(Cl)c2)c2ccccc21` [Sertraline], the “Percentage WKY animals showing freezing behavior >85% of the time in response to cue stimuli across day 1 and 3 following fear conditioning, Mean” value in assay [1] (sertraline 20 mg/kg IP 30 min prior to test) amounted to 0.156. Moreover, the “Freezing behavior, direction of change vs. vehicle” value in assay [1] (sertraline 20 mg/kg IP) was “Decrease”; in assay [1] (sertraline 20 mg/kg IP, listed as sertraline) it was “significant reduction in freezing behavior”.
With `CN1CCN2c3ncccc3Cc3ccccc3[C@H]2C1` [S-mirtazapine, S-(+)-mirtazapine], the “Effects on marble burying relative to racemic mirtazapine” value in assay [2] was “significantly more robust”. Further, in assay [2] (Example 4, S-mirtazapine 1, 2.5, 5, 10 mg/kg IP), the “Number of marbles buried compared to vehicle” value (“Number … compared to vehicle” below) is reported as “significantly reduced the number of marbles buried”. Also, in assay [2] (Example 4, S-mirtazapine with or without DCS), the “Marble burying in the absence and presence of DCS” value was “floor level effects”.
For `Fc1ccc([C@@H]2CCNC[C@H]2COc2ccc3c(c2)OCO3)cc1` [Paroxetine], the “Number … compared to vehicle” value is on record as “significantly reduced the number of marbles buried” in assay [2] (Example 3, paroxetine 5 mg/kg IP 30 min prior to test) and “significantly reduced the number of marbles buried” in assay [2] (Example 4, paroxetine 5 mg/kg IP).
`CN1CCN2c3ncccc3Cc3ccccc3C2C1` (racemic) [Mirtazapine]: the “Number … compared to vehicle” value in assay [2] (Example 3, mirtazapine 5.5 mg/kg IP 30 min prior to test) is listed as “significantly reduced the number of marbles buried”; in assay [2] (Example 4, mirtazapine 1, 2.5, 5 and 10 mg/kg IP) it was “significantly reduced the number of marbles buried”.
Regarding `O=C1[C@@H]2[C@H]3CC[C@H](C3)[C@@H]2C(=O)N1C[C@@H]1CCCC[C@H]1CN1CCN(c2nsc3ccccc23)CC1` [Lurasidone], the “Percentage WKY animals showing freezing behavior >85% of the time in response to cue stimuli across day 1 and 3 following fear conditioning, Mean” value in assay [1] (lurasidone 0.2 mg/kg IP 30 min prior to test) is 0.531.
For `O=C(O)[C@H]1CN(C/C=C/P(=O)(O)O)CCN1` [DCPPene, D-(E)-4-(3-phosphonoprop-2-enyl)piperazine-2-carboxylic acid], the “Percentage WKY animals showing freezing behavior >85% of the time in response to cue stimuli across day 1 and 3 following fear conditioning, Mean” value in assay [1] (D-CPP-ene 5 mg/kg s.c. 30 min prior to extinction test) is listed as 0.625. Further, the “Freezing behavior, direction of change vs. vehicle” value is “Increase” in assay [1] (D-CPP-ene 5 mg/kg s.c.) and “tended to increase freezing behavior” in assay [1] (D-CPP-ene 5 mg/kg s.c., listed as D-CPPene).
Turning to `OCCOCCN1CCN(C2=Nc3ccccc3Sc3ccccc32)CC1` [QTP, Quetiapine], the “Percentage WKY animals showing freezing behavior >85% of the time in response to cue stimuli across day 1 and 3 following fear conditioning, Mean” value in assay [1] (quetiapine 10 mg/kg s.c. 30 min prior to test) is 0.625. In addition, the “Freezing behavior, direction of change vs. vehicle” value in assay [1] (quetiapine 10 mg/kg s.c.) was “Increase”; in assay [1] (quetiapine 10 mg/kg s.c., listed as quetiapine) it was “tended to increase freezing behavior”.
As to `CN1CCN2c3ncccc3Cc3ccccc3[C@@H]2C1` [R-mirtazapine, R-(−)-mirtazapine], the “Effects on marble burying relative to racemic mirtazapine” value in assay [2] was “less robust”. Also, the “Number … compared to vehicle” value was “significantly reduced the number of marbles buried” in assay [2] (Example 4, R-mirtazapine 10 mg/kg IP); “did not affect this measure” in assay [2] (Example 4, R-mirtazapine 1, 2.5 and 5 mg/kg IP). Also, the “Relative effects of R- and S-isomers of mirtazapine on marble burying (FIG. 2 legend)” value in assay [2] (R- vs S-isomer) is listed as “greater effects”.
